The record followed here is US10745382B2 (BRISTOL-MYERS SQUIBB COMPANY, priority 2015, dated 2020).

This assay has as its target T1, PD-1/PD-L1 (Homo sapiens, UniProt Q9NZQ7).
T1 construct: made in house; host or cells: HEK293T
In words: PD-1/PD-L1 Homogenous Time-Resolved Fluorescence (HTRF) binding assay. The following applies: PD-L1-His 10 nM, PD-1-Ig 20 nM; value given as range class; read-out: Range or IC50. An outline of the steps:
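Compounds are tested for blocking the PD-1/PD-L1 interaction in dPBS supplemented with 0.1% BSA and 0.05% (v/v) Tween-20. Tagged proteins are detected with Eu-cryptate anti-Ig and APC anti-His at 1 and 20 nM final.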

The structures appear in SMILES notation.

T1 sequence (Q9NZQ7 with tags, fused parts or gaps): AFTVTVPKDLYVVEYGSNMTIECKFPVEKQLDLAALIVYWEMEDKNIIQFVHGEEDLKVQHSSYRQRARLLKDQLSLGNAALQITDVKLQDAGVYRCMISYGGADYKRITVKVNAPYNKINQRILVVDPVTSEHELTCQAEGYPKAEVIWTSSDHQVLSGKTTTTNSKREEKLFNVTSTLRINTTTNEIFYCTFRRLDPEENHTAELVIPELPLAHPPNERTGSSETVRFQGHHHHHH

By IC50 is commonly meant the concentration at which inhibition is half-maximal. As to `Cc1c(COc2cc(OCc3cncc(C#N)c3)c(CNC(C)(CO)CO)cc2Cl)cccc1-c1cccc(CN(C)CCN2CCS(=O)(=O)CC2)c1C` [Example 4082, 5-((4-chloro-2-(((1,3-dihydroxy-2-methylpropan-2-yl)amino)methyl)-5-((3′-(((2-(1,1-dioxidothiomorpholino)ethyl)(methyl)amino)methyl)-2,2′-dimethyl-[1,1′-biphenyl]-3-yl)methoxy)phenoxy)methyl)nicotinonitrile], the IC50 was 0.21 to 10 nM.

On to `Cc1c(COc2cc(OCc3cncc(C#N)c3)c(CNC(CO)(CO)CO)cc2Cl)cccc1-c1cccc(CN(C)CCN2CCS(=O)(=O)CC2)c1C` [Example 4083, 5-((4-chloro-2-(((1,3-dihydroxy-2-(hydroxymethyl)propan-2-yl)amino)methyl)-5-((3′-(((2-(1,1-dioxidothiomorpholino)ethyl)(methyl)amino)methyl)-2,2′-dimethyl-[1,1′-biphenyl]-3-yl)methoxy)phenoxy)methyl)nicotinonitrile], for which the IC50 fell in the range of 0.21 to 10 nM.

As for `Cc1c(COc2cc(OCc3cncc(C#N)c3)c(CN(CCO)CCO)cc2Cl)cccc1-c1cccc(CN(C)CCN2CCS(=O)(=O)CC2)c1C` [Example 4084, 5-((2-((bis(2-hydroxyethyl)amino)methyl)-4-chloro-5-((3′-(((2-(1,1-dioxidothiomorpholino)ethyl)(methyl)amino)methyl)-2,2′-dimethyl-[1,1′-biphenyl]-3-yl)methoxy)phenoxy)methyl)nicotinonitrile], the IC50 was in the range of 10 to 100 nM.

On to `Cc1c(COc2cc(OCc3cncc(C#N)c3)c(CN(CCO)CCCO)cc2Cl)cccc1-c1cccc(CN(C)CCN2CCS(=O)(=O)CC2)c1C` [Example 4085, 5-((4-chloro-5-((3′-(((2-(1,1-dioxidothiomorpholino)ethyl)(methyl)amino)methyl)-2,2′-dimethyl-[1,1′-biphenyl]-3-yl)methoxy)-2-(((2-hydroxyethyl)(3-hydroxypropyl)amino)methyl)phenoxy)methyl)nicotinonitrile], for which the concentration for half-maximal inhibition (IC50) lay within 10 to 100 nM.

For the compound `Cc1cc(OCc2cccc(-c3cccc(OCCCN4CC[C@@H](O)C4)c3C)c2C)cc(OCc2cncc(C#N)c2)c1CN1CCCC[C@H]1C(=O)O` [Example 4086, (S)-1-(2-((5-cyanopyridin-3-yl)methoxy)-4-((3′-(3-((R)-3-hydroxypyrrolidin-1-yl)propoxy)-2,2′-dimethyl-[1,1′-biphenyl]-3-yl)methoxy)-6-methylbenzyl)piperidine-2-carboxylic Acid], the IC50 fell in the range of 0.21 to 10 nM.

As for `Cc1cc(OCc2cccc(-c3cccc(OCCCN4CC[C@@H](O)C4)c3C)c2C)cc(OCc2cncc(C#N)c2)c1CNC(CO)CO` [Example 4087, (R)-5-((2-(((1,3-dihydroxypropan-2-yl)amino)methyl)-5-((3′-(3-(3-hydroxypyrrolidin-1-yl)propoxy)-2,2′-dimethyl-[1,1′-biphenyl]-3-yl)methoxy)-3-methylphenoxy)methyl)nicotinonitrile], the IC50 lay within 0.21 to 10 nM.

Take `Cc1cc(OCc2cccc(-c3cccc(OCCCN4CC[C@@H](O)C4)c3C)c2C)cc(OCc2cncc(C#N)c2)c1CNC(C)(CO)CO` [Example 4088, (R)-5-((2-(((1,3-dihydroxy-2-methylpropan-2-yl)amino)methyl)-5-((3′-(3-(3-hydroxypyrrolidin-1-yl)propoxy)-2,2′-dimethyl-[1,1′-biphenyl]-3-yl)methoxy)-3-methylphenoxy)methyl)nicotinonitrile]: the IC50 lay in the range of 0.21 to 10 nM.

As for `Cc1cc(OCc2cccc(-c3cccc(OCCCN4CC[C@@H](O)C4)c3C)c2C)cc(OCc2cncc(C#N)c2)c1CNC(CO)(CO)CO` [Example 4089, (R)-5-((2-(((1,3-dihydroxy-2-(hydroxymethyl)propan-2-yl)amino)methyl)-5-((3′-(3-(3-hydroxypyrrolidin-1-yl)propoxy)-2,2′-dimethyl-[1,1′-biphenyl]-3-yl)methoxy)-3-methylphenoxy)methyl)nicotinonitrile], the IC50 was in the range of 0.21 to 10 nM.

As to `Cc1cc(OCc2cccc(-c3cccc(OCCCN4CC[C@@H](O)C4)c3C)c2C)cc(OCc2cncc(C#N)c2)c1CN(CCO)CCO` [Example 4090, (R)-5-((2-((bis(2-hydroxyethyl)amino)methyl)-5-((3′-(3-(3-hydroxypyrrolidin-1-yl)propoxy)-2,2′-dimethyl-[1,1′-biphenyl]-3-yl)methoxy)-3-methylphenoxy)methyl)nicotinonitrile], the IC50 lay in the range of 0.21 to 10 nM.

In the case of `Cc1cc(OCc2cccc(-c3cccc(OCCCN4CC[C@@H](O)C4)c3C)c2C)cc(OCc2cncc(C#N)c2)c1CN[C@@](C)(CO)C(=O)O` [Example 4091, (S)-2-((2-((5-cyanopyridin-3-yl)methoxy)-4-((3′-(3-((R)-3-hydroxypyrrolidin-1-yl)propoxy)-2,2′-dimethyl-[1,1′-biphenyl]-3-yl)methoxy)-6-methylbenzyl)amino)-3-hydroxy-2-methylpropanoic Acid], the IC50 lay in the range of 0.21 to 10 nM.

With `Cc1c(COc2cc(OCc3cncc(C#N)c3)c(CN(C)[C@@](C)(CO)C(=O)O)c(C)c2Cl)cccc1-c1cccc(OCCCN2CC[C@@H](O)C2)c1C` [Example 4100, (S)-2-((3-chloro-6-((5-cyanopyridin-3-yl)methoxy)-4-((3′-(3-((R)-3-hydroxypyrrolidin-1-yl)propoxy)-2,2′-dimethyl-[1,1′-biphenyl]-3-yl)methoxy)-2-methylbenzyl)(methyl)amino)-3-hydroxy-2-methylpropanoic Acid], the IC50 lay in the range of 0.21 to 10 nM.

Take `Cc1c(COc2cc(OCc3cncc(C#N)c3)c(CN3CCCC[C@H]3C(=O)O)c(C)c2Cl)cccc1-c1cccc(OCCCN2CC[C@@H](O)C2)c1C` [Example 4101, (S)-1-(3-chloro-6-((5-cyanopyridin-3-yl)methoxy)-4-((3′-(3-((R)-3-hydroxypyrrolidin-1-yl)propoxy)-2,2′-dimethyl-[1,1′-biphenyl]-3-yl)methoxy)-2-methylbenzyl)piperidine-2-carboxylic Acid]: the IC50 lay in the range of 0.21 to 10 nM.

On to `Cc1c(COc2cc(OCc3cncc(C#N)c3)c(CNC(CO)CO)c(C)c2Cl)cccc1-c1cccc(OCCCN2CC[C@@H](O)C2)c1C` [Example 4102, (R)-5-((4-chloro-2-(((1,3-dihydroxypropan-2-yl)amino)methyl)-5-((3′-(3-(3-hydroxypyrrolidin-1-yl)propoxy)-2,2′-dimethyl-[1,1′-biphenyl]-3-yl)methoxy)-3-methylphenoxy)methyl)nicotinonitrile], for which the IC50 was in the range of 0.21 to 10 nM.

Take `Cc1c(COc2cc(OCc3cncc(C#N)c3)c(CNC(C)(CO)CO)c(C)c2Cl)cccc1-c1cccc(OCCCN2CC[C@@H](O)C2)c1C` [Example 4103, (R)-5-((4-chloro-2-(((1,3-dihydroxy-2-methylpropan-2-yl)amino)methyl)-5-((3′-(3-(3-hydroxypyrrolidin-1-yl)propoxy)-2,2′-dimethyl-[1,1′-biphenyl]-3-yl)methoxy)-3-methylphenoxy)methyl)nicotinonitrile]: the half-inhibitory concentration (IC50) was 0.21 to 10 nM.

On to `Cc1c(COc2cc(OCc3cncc(C#N)c3)c(CNC(CO)(CO)CO)c(C)c2Cl)cccc1-c1cccc(OCCCN2CC[C@@H](O)C2)c1C` [Example 4104, (R)-5-((4-chloro-2-(((1,3-dihydroxy-2-(hydroxymethyl)propan-2-yl)amino)methyl)-5-((3′-(3-(3-hydroxypyrrolidin-1-yl)propoxy)-2,2′-dimethyl-[1,1′-biphenyl]-3-yl)methoxy)-3-methylphenoxy)methyl)nicotinonitrile], for which the IC50 fell in the range of 0.21 to 10 nM.
